Assay [1] can be described thus: Evaluation of test compounds as animal growth promoters and antilipogenic agents - mouse test. It counts as in vivo, CFI female mice. The following applies: 12-day test period; for Gain (grams): weight gain per cage of ten mice; for % Reduction in fat pad weight vs controls: right uterine fat pad, minus sign = reduction. The method, then:
CFI female mice from Carworth Farms are received when they are six-weeks old. They are housed ten to a cage in air-conditioned rooms (22 °C to 25 °C) with automatically-controlled lights, 14 hours on and ten hours off. The basal diet used in these studies is Purina Laboratory Chow (see description below) which is supplied ad libitum. The following is a description of the diet to which the growth-promoting compounds were added. Thirteen days after arrival, the mice are weighed in groups of ten and assigned at random to the different treatments. Each of the treatments is tested in three replicates, i.e., in three cages of ten mice each. There are ten cages of ten control mice each. Drugs are mixed in the diet at the dosage level indicated. Feed and water are offered ad libitum for a 12-day test period. Feed spilled is collected during the test period. At the end of the test period, the collected feed is weighed, and the mean feed consumption per cage of ten mice is determined for each treatment. The mice are weighed as a group of ten, and the weight gain determined. The mice are sacrificed by cervical dislocation. The right uterine fat pad of each mouse is removed. The fat pads for each cage of ten mice are weighed as a unit. Reduction in fat pad weights of animals is generally indicative of a reduction of total body fat of the treated animals.

In assay [2] the target is T1, Beta-1 adrenergic receptor membranes (Meleagris gallopavo, UniProt P07700).
T1 construct: Freshly drawn heparinized whole blood from turkeys and rats is centrifuged; from tissue; host or cells: erythrocyte membranes from freshly drawn turkey blood
T1 sequence (P07700 whole entry): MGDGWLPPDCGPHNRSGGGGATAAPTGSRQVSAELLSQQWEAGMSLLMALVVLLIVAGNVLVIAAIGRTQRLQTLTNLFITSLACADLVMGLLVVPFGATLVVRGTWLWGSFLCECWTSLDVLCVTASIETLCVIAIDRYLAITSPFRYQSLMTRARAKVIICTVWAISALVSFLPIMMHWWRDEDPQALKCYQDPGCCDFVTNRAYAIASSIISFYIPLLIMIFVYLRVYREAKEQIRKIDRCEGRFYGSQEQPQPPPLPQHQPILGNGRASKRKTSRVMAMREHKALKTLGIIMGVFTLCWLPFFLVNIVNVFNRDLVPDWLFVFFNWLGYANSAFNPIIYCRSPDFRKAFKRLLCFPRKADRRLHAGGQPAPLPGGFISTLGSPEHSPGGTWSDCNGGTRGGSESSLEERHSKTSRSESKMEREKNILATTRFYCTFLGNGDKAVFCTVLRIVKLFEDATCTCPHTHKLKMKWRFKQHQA
Put plainly: Beta-1 adrenergic activity by (H3) dihydroalprenolol radioligand binding to receptor membranes. Details: species or system turkey. The method, then: Beta-1 adrenergic activity of experimental compounds is identified by radioactive ligand-binding studies by using beta adrenergic receptor membranes and adrenergic antagonist (H3) dihydroalprenolol (DHA). Binding of (H3) DHA to membrane fractions is assayed by filtration on glass fiber filters. Specific binding is defined as total radioactivity bound minus nonspecific bound radioactivity, i.e., binding in the presence of 100 µM non-radioactive DHA. Results are expressed as the concentrations of the compound required to displace […] radioactive ligand from binding of beta adrenergic receptors (K-50).
In these tests, beta adrenergic receptor membranes are incubated with radioactive dihydroalprenolol (H3 DHA) and experimental compounds. The bound radio- ligand is separated by filtration on glass fiber filters and counted by scintillation counter.
Beta-1 adrenergic receptor membranes are isolated from turkey and rat erythrocytes respectively using the procedures of: • Hancock, A., DeLean, A., Lefkowitz, R. J. Mol. Pharmacol. 16:1, 1979; • DeLean, A, Hancock A., Lefkowitz, R. J. Mol. Pharmacol. 21:5, 1979; or • Lefkowitz, R. J., Stadel, J. M., and Caron, M. G. Ann. Rev. Biochem 52:157, 1983.
Freshly drawn heparinized whole blood from turkeys and rats is centrifuged for five minutes ([…]). The plasma is withdrawn; the remaining erythrocytes are suspended in 150mM sodium chloride solutions and centrifuged. The cells are resuspended and centrifuged twice more. […] The protein concentration of receptor membranes is determined by the biuret method.
To duplicate incubation, tubes are added 200 µl suspended membranes (200 µg protein), 25 µl of compound in solution or buffer and 25 µl (H3) dihydroalprenolol ([…]). […] The filters are rinsed three times with 5 mL of cold buffer (145 mM NaCl, 1 mM ethylenediaminetetraacetic acid, and 10 mM tris, pH 7.4) and subsequently counted by liquid scintillation counter in 10 mL of aquasol. […]

[3] abbreviates: concentration required to displace 50% radioactive ligand ((H3) DHA), 23°C, one hour, read-out: β1 K-50.

Where two headings read alike, the source gives them in different places. Some results are limits rather than exact numbers.

As for `CC(C)NCC(O)c1cccc(C#N)c1` (stereo not drawn) [the 2nd table drawing], the “Gain (grams)” value in assay [1] (3 ppm in diet) turned out to be 32.4 grams; in assay [1] (6 ppm in diet) it was 23.4 grams; in assay [1] (12 ppm in diet), 29.4 grams; in assay [1] (25 ppm in diet) it was 37.1 grams; in assay [1] (50 ppm in diet) it was 37.4 grams; in assay [1] (100 ppm in diet), 37.3 grams. The “Gain (grams)” value in assay [1] (200 ppm in diet) worked out at 39.0 grams. For the same compound, the “% Reduction in fat pad weight vs controls” value in assay [1] (100 ppm in diet) is -9.1%.
In the case of `CC(C)(C)NCC(O)c1cccc(C#N)c1` (stereo not drawn) [the 4th table, row 5 drawing], the IC50 in assay [2] (setting [3]) was greater than 100 µM.
`CC(C)(C)NCC(O)c1cc(Cl)c(N)c(Cl)c1` (stereo not drawn) [Clenbuterol, reference compound] registered an IC50 in assay [2] of 0.977 µM.
For the compound `CC(C)NCC(O)c1cccc(C#N)c1` (stereo not drawn) [the 4th table, row 4 drawing], the IC50 in assay [2] (setting [3]) is greater than 100 µM.
Take `CC(C)(C)NCC(O)c1cccc(C#N)c1` (stereo not drawn) [the 3rd table drawing]: the “Gain (grams)” value in assay [1] (3 ppm in diet) is 29.3 grams; in assay [1] (6 ppm in diet) it was 37.4 grams; in assay [1] (12 ppm in diet), 30.5 grams; in assay [1] (25 ppm in diet) it was 35.9 grams; in assay [1] (50 ppm in diet) it was 41.1 grams; in assay [1] (100 ppm in diet) it was 36.1 grams. For the same compound, the “Gain (grams)” value in assay [1] (200 ppm in diet) amounted to 33.2 grams. Also, the figures for the “% Reduction in fat pad weight vs controls” value in assay [1] (25 ppm in diet), in assay [1] (50 ppm in diet) and in assay [1] (100 ppm in diet) were “+5.2%”, -11.6% and -16.9%, respectively.

Values taken from patent EP0195397A1, “m-Cyanophenethanolamines as animal growth promoters and antilipogenic agents” (AMERICAN CYANAMID COMPANY, priority 1985, dated 1986).
